The nature of experiment [1]: Anti-inflammatory activity: oedema provoked by carragenin in the rat. In kind it is in vivo. The note with it: po, read-out: percentage inhibition of oedema; for inhibition in vivo at 64 mg/kg: 64 mg/kg orally; for inhibition in vivo at 128 mg/kg: 128 mg/kg orally; for inhibition in vivo at 256 mg/kg: 256 mg/kg orally; for inhibition in vivo at 512 mg/kg: 512 mg/kg orally. On the procedure:
The method used was as follows.
The anti-inflammatory activity was measured on oedema provoked by carragenin in the rat. Groups of six male rats each weighing 120 to 130 g received the compound under test orally in suspension in "tween 80", half the dose being given 2 hours before and the other half 1/2 hour before the subcutaneous plantar injection of 0.05 ml of a 1 % carragenin solution. The volume of the injected paw was measured by plethysmography at regular intervals. Table 1 below gives the percentage inhibition of the oedema with reference to untreated controls.

A short description of experiment [2]: Escape test. In kind it is in vivo. The note with it: Mus musculus, ip, 0.5 h, read-out: Percentage inhibition (number of attempts to escape); for change in vivo at 8 mg/kg: 8 mg/kg intraperitoneally; for change in vivo at 16 mg/kg: 16 mg/kg intraperitoneally; for change in vivo at 32 mg/kg: 32 mg/kg intraperitoneally; for change in vivo at 64 mg/kg: 64 mg/kg intraperitoneally; for change in vivo at 128 mg/kg: 128 mg/kg intraperitoneally; for change in vivo at 256 mg/kg: 256 mg/kg intraperitoneally. On the procedure:
Groups of 8 mice were placed in sub groups of 4 in an enclosure from which they could escape by an inclined plane. The number of attempts to escape during 5 minutes were counted half an hour after intraperitoneal administration of the compound under test.

Experiment [3] can be described thus: Analgesic activity: Siegmund's test (phenylbenzoquinone painful reactions). The note with it: Mus musculus, po, read-out: percentage inhibition of reactions; for inhibition in vivo at 32 mg/kg: 32 mg/kg orally; for inhibition in vivo at 64 mg/kg: 64 mg/kg orally; for inhibition in vivo at 128 mg/kg: 128 mg/kg orally; for inhibition in vivo at 256 mg/kg: 256 mg/kg orally; for inhibition in vivo at 512 mg/kg: 512 mg/kg orally. In kind it is in vivo. On the procedure: This activity was measured by Siegmund's test in mice and Randall and Selitto's test in the rat.
Groups of six mice received the compound under test orally 1 hour before intraperitoneal injection of 0.2 ml of an 0.02% of solution of phenylbenzoquinone. The number of painful reactiors from the fifth to the tenth minute after the injection of phenylbenzoquinone was counted.

The nature of experiment [4]: Analgesic activity: Randall and Selitto's test (beer yeast paw, pain threshold). In kind it is in vivo, rat. On the procedure: This activity was measured by Siegmund's test in mice and Randall and Selitto's test in the rat. Groups of ten male rats each weight 120 to 140 g received by subcutaneous plantar injection 0.05 ml of a 5% aqueous suspension of beer yeast. 2 Hours after this treatment they received the compound under test orally and 1 hour after administration of this compound the paw which had been injected and the contralateral paw were subjected to increasing pressure. The appearance of the pain threshold was noted.

Experiment [5] can be described thus: Antagonism of convulsions produced by cardiazole. In kind it is in vivo. The following applies: Mus musculus, ip, read-out: Percentage inhibition of tonic convulsions; for inhibition in vivo at 4 mg/kg: 4 mg/kg intraperitoneally; for inhibition in vivo at 8 mg/kg: 8 mg/kg intraperitoneally; for inhibition in vivo at 16 mg/kg: 16 mg/kg intraperitoneally; for inhibition in vivo at 32 mg/kg: 32 mg/kg intraperitoneally; for inhibition in vivo at 64 mg/kg: 64 mg/kg intraperitoneally; for inhibition in vivo at 128 mg/kg: 128 mg/kg intraperitoneally; for inhibition in vivo at 256 mg/kg: 256 mg/kg intraperitoneally. On the procedure: Groups of 6 mice received the compound under test 30 minutes before introperitoneal injection of 160 mg/kg of cardiazole. The action of the compound under test on the tonic convulsion phase was observed.

A short description of experiment [6]: Potentiation of stereotypes by amphetamine. The following applies: 5 mg/kg dexamphetamine sulphate. In kind it is in vivo, rat. On the procedure: The compound under test was administered to groups of 5 rats intraperitoneally. Thirty minutes afterwards, 5 mg/kg of dexamphetamine sulphate was injected intraperitoneally. The duration of the phenomenon is counted at regular intervals from 0 to 4 and the counts are added up.

The mark [7] stands for this setting: without yeast, 128 mg/kg orally.
Where [8] appears, read: without yeast, 256 mg/kg orally.

Each structure is given as a SMILES string.

As to `Cc1cccc(Nc2ncccc2C(=O)OCCN2CCCCC2)c1C` [Example 2, β-Piperidino ethyl nixylate], in experiment [1], the inhibition in vivo at 64 mg/kg turned out to be 6%, the inhibition in vivo at 128 mg/kg is 42% and the inhibition in vivo at 256 mg/kg amounted to 70%. In experiment [2], the change in vivo at 8 mg/kg came to 6%, the change in vivo at 16 mg/kg was -21%, the change in vivo at 32 mg/kg is -43% and the change in vivo at 64 mg/kg is -80%. Also, the change in vivo at 128 mg/kg in experiment [2] is -100%. In addition, in experiment [3], the inhibition in vivo at 32 mg/kg was found to be 24%, the inhibition in vivo at 64 mg/kg was found to be 48% and the inhibition in vivo at 128 mg/kg amounted to 69%. In addition, in experiment [4] (with yeast, 64 mg/kg orally), the “percentage increase of pain threshold” value worked out at 5%. Further, in experiment [4] (with yeast, 128 mg/kg orally), the “percentage increase of pain threshold” value is reported as 30%. Further, in experiment [4] (with yeast, 256 mg/kg orally), the “percentage increase of pain threshold” value was found to be 87%. The “percentage increase of pain threshold” value in experiment [4] (without yeast, 64 mg/kg orally) was determined as 0%. Besides, the “percentage increase of pain threshold” value in experiment [4] (setting [7]) is 52%. The “percentage increase of pain threshold” value in experiment [4] (setting [8]) worked out at 33%. Further, in experiment [5], the inhibition in vivo at 4 mg/kg came to 0%, the inhibition in vivo at 8 mg/kg is 16%, the inhibition in vivo at 16 mg/kg was found to be 5% and the inhibition in vivo at 32 mg/kg came to 22%. In addition, in experiment [5], the inhibition in vivo at 64 mg/kg was determined as 72% and the inhibition in vivo at 128 mg/kg was 100%.

For the molecule `Cc1cccc(Nc2ncccc2C(=O)OCCN2CCN(C)CC2)c1C` [Example 4, β-(N-methylpiperazino)ethyl nixylate], the inhibition in vivo at 64 mg/kg in experiment [1] was found to be 0%; in experiment [3], 33%; in experiment [5], 58%. The inhibition in vivo at 128 mg/kg turned out to be 50% in experiment [1], 69% in experiment [3] and 91% in experiment [5]. For the same molecule, the inhibition in vivo at 256 mg/kg in experiment [1] is 62%; in experiment [3], 84%. The change in vivo at 8 mg/kg in experiment [2] turned out to be 2%. In addition, the change in vivo at 16 mg/kg in experiment [2] was -11%. Besides, the change in vivo at 32 mg/kg in experiment [2] is -37%. The change in vivo at 64 mg/kg in experiment [2] is -61%. Besides, the change in vivo at 128 mg/kg in experiment [2] was -95%. Further, the inhibition in vivo at 32 mg/kg in experiment [3] was determined as 8%; in experiment [5] it was 0%. Besides, the “percentage increase of pain threshold” value in experiment [4] (with yeast, 16 mg/kg orally) is on record as 0%; in experiment [4] (with yeast, 32 mg/kg orally) it was 31%; in experiment [4] (with yeast, 64 mg/kg orally), 27%; in experiment [4] (with yeast, 128 mg/kg orally) it was 61%; in experiment [4] (with yeast, 256 mg/kg orally), 16%; in experiment [4] (without yeast, 16 mg/kg orally), 8%. Moreover, the “percentage increase of pain threshold” value in experiment [4] (without yeast, 32 mg/kg orally) was 30%; in experiment [4] (without yeast, 64 mg/kg orally), 46%; in experiment [4] (setting [7]) it was 38%; in experiment [4] (setting [8]) it was 10%. Besides, the inhibition in vivo at 16 mg/kg in experiment [5] is 0%.

Regarding `O=C(OCCN1CCOCC1)c1cccnc1Nc1ccccc1` [Example 5, β-Morpholino ethyl 2-anilino nicotinate], in experiment [1], the inhibition in vivo at 128 mg/kg was found to be 0%, the inhibition in vivo at 256 mg/kg was 17% and the inhibition in vivo at 512 mg/kg amounted to 71%. Moreover, in experiment [2], the change in vivo at 16 mg/kg is -12%, the change in vivo at 32 mg/kg was -5%, the change in vivo at 64 mg/kg is -23% and the change in vivo at 128 mg/kg was -20%. For the same molecule, the change in vivo at 256 mg/kg in experiment [2] is -78%. In addition, in experiment [3], the inhibition in vivo at 32 mg/kg worked out at 16%, the inhibition in vivo at 64 mg/kg is 38%, the inhibition in vivo at 128 mg/kg is 57% and the inhibition in vivo at 256 mg/kg was determined as 83%. In addition, in experiment [6] (16 mg/kg intraperitoneally), the “Sum of the counts (stereotypes)” value is recorded as 14. In addition, the “Sum of the counts (stereotypes)” value in experiment [6] (64 mg/kg intraperitoneally) is listed as 22. The “Sum of the counts (stereotypes)” value in experiment [6] (256 mg/kg intraperitoneally) is 44. Further, in experiment [5], the inhibition in vivo at 4 mg/kg amounted to 0%, the inhibition in vivo at 8 mg/kg came to 16%, the inhibition in vivo at 16 mg/kg was 33% and the inhibition in vivo at 32 mg/kg is 33%. In addition, in experiment [5], the inhibition in vivo at 64 mg/kg was found to be 16%, the inhibition in vivo at 128 mg/kg was determined as 33% and the inhibition in vivo at 256 mg/kg was 100%.

As for `Cc1cccc(C)c1Nc1ncccc1C(=O)OCCN1CCOCC1` [Example 6, β-Morpholino ethyl 2-(2,6-dimethylanilino) nicotinate], in experiment [1], the inhibition in vivo at 64 mg/kg was 0%, the inhibition in vivo at 128 mg/kg turned out to be 13%, the inhibition in vivo at 256 mg/kg amounted to 36% and the inhibition in vivo at 512 mg/kg came to 80%. Further, in experiment [2], the change in vivo at 16 mg/kg is -13%, the change in vivo at 32 mg/kg is -20%, the change in vivo at 64 mg/kg was -35% and the change in vivo at 128 mg/kg was -74%. Besides, in experiment [2], the change in vivo at 256 mg/kg is -100%. Moreover, in experiment [3], the inhibition in vivo at 64 mg/kg is 23%, the inhibition in vivo at 128 mg/kg came out at 39%, the inhibition in vivo at 256 mg/kg came to 69% and the inhibition in vivo at 512 mg/kg came to 100%.

Regarding `Cc1ccc(Nc2ncccc2C(=O)OCCN2CCOCC2)cc1Cl` [Example 7, β-Morpholino ethyl 2-(3-chloro-4-methylanilino) nicotinate], in experiment [1], the inhibition in vivo at 128 mg/kg is 2%, the inhibition in vivo at 256 mg/kg was determined as 29% and the inhibition in vivo at 512 mg/kg came out at 53%. Moreover, in experiment [2], the change in vivo at 16 mg/kg was -48%, the change in vivo at 64 mg/kg was -62% and the change in vivo at 256 mg/kg is -96%. In experiment [3], the inhibition in vivo at 32 mg/kg came out at 14%, the inhibition in vivo at 64 mg/kg turned out to be 33%, the inhibition in vivo at 128 mg/kg stood at 55% and the inhibition in vivo at 256 mg/kg was found to be 55%. Further, the inhibition in vivo at 512 mg/kg in experiment [3] was found to be 77%. In addition, in experiment [5], the inhibition in vivo at 64 mg/kg came out at 0%, the inhibition in vivo at 128 mg/kg came to 9% and the inhibition in vivo at 256 mg/kg worked out at 59%.

As for `Cc1ccc(Cl)cc1Nc1ncccc1C(=O)OCCN1CCOCC1` [Example 8, β-Morpholino ethyl 2-(2-methyl-5-chloroanilino) nicotinate], in experiment [1], the inhibition in vivo at 64 mg/kg came out at 0% and the inhibition in vivo at 256 mg/kg stood at 36%. Further, in experiment [2], the change in vivo at 32 mg/kg was -25%, the change in vivo at 64 mg/kg was -52%, the change in vivo at 128 mg/kg was -62% and the change in vivo at 256 mg/kg is -83%. Further, in experiment [3], the inhibition in vivo at 256 mg/kg is 18% and the inhibition in vivo at 512 mg/kg came out at 74%. Moreover, the “Sum of the counts (stereotypes)” value in experiment [6] (32 mg/kg intraperitoneally) was 89. The “Sum of the counts (stereotypes)” value in experiment [6] (64 mg/kg intraperitoneally) was found to be 87. Further, the “Sum of the counts (stereotypes)” value in experiment [6] (128 mg/kg intraperitoneally) turned out to be 161. For the same molecule, in experiment [6] (256 mg/kg intraperitoneally), the “Sum of the counts (stereotypes)” value stood at 195. In experiment [5], the inhibition in vivo at 32 mg/kg stood at 0%, the inhibition in vivo at 64 mg/kg turned out to be 17%, the inhibition in vivo at 128 mg/kg is 33% and the inhibition in vivo at 256 mg/kg was 67%. In addition, the inhibition in vivo at 512 mg/kg in experiment [5] (512 mg/kg intraperitoneally) was determined as 100%.

The record behind these values is patent US3959272A, “Aminoalkyl esters of 2-anilino-nicotinic acids” (Societe Anonyme dite: Hexachime, priority 1972, dated 1976).
